Test results published in publication PMC9019904, “AD Informer Set: Chemical tools to facilitate Alzheimer's disease drug discovery” (Alzheimer's & Dementia : Translational Research & Clinical …, 2022).
Converted amounts (≈) assume the structure as drawn. Like-named read-outs stand apart in the source and are kept apart here.

What was measured:
[1] = tested on: protein product expressed by the gene target; conditions: cited from earlier work
[2] = tested on: BV2 (mouse microglia) cell line; test: pHrodo-myelin phagocytosis/cell viability high content imaging assay: viability (cell count, nuclear area, nuclear intensity)
Summary of the method: (§1)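 Immortalized microglia are treated with compound (10 μM, single concentration) for 48 h, the final 20 h alongside pHrodo-myelin. Data are the mean of duplicates, reported as % of untreated control.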

physchem = conditions: pH 7.4, aqueous buffer, kinetic from dmso stock
[3] = Kinetic solubility in aqueous buffer pH 7.4 by total chemiluminescent nitrogen determination (Analiza); conditions: aqueous buffer, pH 7.4, aqueous buffer, kinetic from dmso stock
[4] = tested on: HMC3 (human microglia) cell line; test: pHrodo-myelin phagocytosis/cell viability high content imaging assay: viability (cell count, nuclear area, nuclear intensity); conditions: for Human microglial cytotoxicity at 10 μM (<70% control): HMC3, 10 μM
Summary of the method: as §1

[5] = tested on: HMC3 (human microglia) cell line; test: pHrodo-myelin phagocytosis/cell viability high content imaging assay: phagocytosis signal; type: cell-based
Summary of the method: (§2)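 Read by high content imaging: the phagocytosis signal plus viability, measured simultaneously, with three extracted measurements. Imaging was done roughly 22 hours after pHrodo-myelin was added.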

[6] = tested on: BV2 (mouse microglia) cell line; test: as above; type: cell-based
Summary of the method: as §2

cellular system = conditions: cited from earlier work
[7] = gene target CYP19A1, ref Probe Miner
[8] = HMC3, compound 10 uM, 48 hours treatment
[9] = BV2, compound 10 uM, 48 hours treatment

Clc1ccccc1C(c1ccccc1)(c1ccccc1)n1ccnc1 [Clotrimazole]
Reported on-target biochemical potency [1, 7]: 1.8 nM | Mouse microglial cytotoxicity at 10 μM (<70% control) ([2]; BV2, 10 μM): Y (The compound was found to be cytotoxic (cell count threshold: <70% control) when murine immortalized microglial cells were dosed at 10 μM (Y: yes)) | solubility kinetic (physchem): 4.2 µM (≈ 1.45 µg/mL)

Cc1ccc(F)c(NC(=O)Nc2ccc(-c3cccc4[nH]nc(N)c34)cc2)c1 [Linifanib]
Reported on-target biochemical potency [1, 7]: 5 nM | solubility kinetic [3]: 0.6 µM (≈ 0.225 µg/mL) | Human microglial cytotoxicity at 10 μM (<70% control) [4]: Y (The compound was found to be cytotoxic (cell count threshold: <70% control) when human immortalized microglial cells were dosed at 10 μM (Y: yes)) | Mouse microglial cytotoxicity at 10 μM (<70% control) ([2]; BV2, 10 μM): Y (The compound was found to be cytotoxic (cell count threshold: <70% control) when murine immortalized microglial cells were dosed at 10 μM (Y: yes)) | Inhibition of human microglial phagocytosis at 10 μM (<70% control) ([5]; HMC3, 10 μM): Y (The compound was found to inhibit phagocytosis (response threshold: <70% control) when human immortalized microglial cells were dosed at 10 μM (Y: yes)) | Stimulation of mouse microglial phagocytosis at 10 μM (>150% control) ([6]; BV2, 10 μM): Y (The compound was found to stimulate phagocytosis (response threshold: >150% control) when murine immortalized microglial cells were dosed at 10 μM (Y: yes))

CC(C)CCOc1ccc(N)cc1 [CP-24879]
Reported on-target biochemical potency ([1]; gene target FADS1 and FADS2, ref PubMed 11939906, 27832159, 9605428): 3400 nM | solubility kinetic (physchem): 56.8 µM (≈ 10.2 µg/mL)

COc1ccc2[nH]c([S+]([O-])Cc3ncc(C)c(OC)c3C)nc2n1 (centres unmarked) [Tenatoprazole]
Reported on-target biochemical potency ([1]; gene target DHTKD1, ref PubMed 32633484): 2700 nM | solubility kinetic (physchem): 131 µM (≈ 45.4 µg/mL)

COCC(=O)O[C@]1(CCN(C)CCCc2nc3ccccc3[nH]2)CCc2cc(F)ccc2[C@@H]1C(C)C [Mibefradil]
Reported on-target biochemical potency [1]: 980 nM | solubility kinetic [3]: 128 µM (≈ 63.4 µg/mL) | Mouse microglial cytotoxicity at 10 μM (<70% control) ([2]; BV2 cells, 10 μM, cell count <70% control): Y (The compound was found to be cytotoxic (cell count threshold: <70% control) when murine immortalized microglial cells were dosed at 10 μM (Y: yes)) | Inhibition of human microglial phagocytosis at 10 μM (<70% control) ([5]; HMC3 cells, 10 μM): Y (The compound was found to inhibit phagocytosis (response threshold: <70% control) when human immortalized microglial cells were dosed at 10 μM (Y: yes)) | Inhibition of mouse microglial phagocytosis at 10 μM (<70% control) ([6]; BV2 cells, 10 μM): Y (The compound was found to inhibit phagocytosis (response threshold: <70% control) when murine immortalized microglial cells were dosed at 10 μM (Y: yes)) | Reported as cell active (<10 μM) (cellular system): Y (key: Published data supports that the compound is active in a cellular system when dosed at 10 μM (Y/N); Published data supports that the compound is active in a cellular system when dosed at 10 μM (Y/N))

O=C(Cn1cc(S(=O)(=O)N2CCCC2)ccc1=O)c1ccc(-c2cccc(C(F)(F)F)c2)cc1 [UNC8367A, reference compound]
Reported on-target biochemical potency ([1]; gene target DOCK1, ref PubMed 28467910, 29432733): 8400 nM | solubility kinetic [3]: 6.5 µM (≈ 3.19 µg/mL) | 1. Cell count (% control) [4, 8]: 109.8 % control | 2. Nuclear Area (% Control) [4, 8]: 95.2 % Control | 3. Nuclear DNA Intensity (% control) [4, 8]: 108.6 % control | Mouse microglial cytotoxicity at 10 μM (<70% control) ([2]; BV2, 10 μM): Y (The compound was found to be cytotoxic (cell count threshold: <70% control) when murine immortalized microglial cells were dosed at 10 μM (Y: yes)) | 1. Cell count (% control) [2, 9]: 56.7 % control | 2. Nuclear Area (% Control) [2, 9]: 109.8 % Control | 3. Nuclear DNA Intensity (% control) [2, 9]: 118.7 % control | phagocytosis in human microglial cells (< 70% control inhibition, > 150% control stimulation) ([5]; HMC3, 10 μM, pHrodo-myelin): stimulatory | 4. Phagocytosis (% control) ([5]; HMC3, compound 10 uM, pHrodo-myelin): 146.9 % control | Stimulation of mouse microglial phagocytosis at 10 μM (>150% control) ([6]; BV2, 10 μM): Y (The compound was found to stimulate phagocytosis (response threshold: >150% control) when murine immortalized microglial cells were dosed at 10 μM (Y: yes)) | 4. Phagocytosis (% control) ([6]; BV2, compound 10 uM, pHrodo-myelin): 408.0 % control

CC(=O)N1CCN(c2ccc(OCC3COC(Cn4ccnc4)(c4ccc(Cl)cc4Cl)O3)cc2)CC1 (centres unmarked) [Ketoconazole]
Reported on-target biochemical potency [1]: 64000 nM | solubility kinetic [3]: 120 µM (≈ 63.6 µg/mL) | Stimulation of mouse microglial phagocytosis at 10 μM (>150% control) ([6]; BV2, 10 μM): Y (The compound was found to stimulate phagocytosis (response threshold: >150% control) when murine immortalized microglial cells were dosed at 10 μM (Y: yes)) | Reported as cell active (<10 μM) (cellular system): Y (key: Published data supports that the compound is active in a cellular system when dosed at 10 μM (Y/N); Published data supports that the compound is active in a cellular system when dosed at 10 μM (Y/N))

Nc1nc(Nc2ccc3c(c2)CC[C@@H](N2CCCC2)CC3)nn1-c1cc2c(nn1)-c1ccccc1CCC2 [Bemcentinib (BGB324)]
Reported on-target biochemical potency [1]: 14 nM | solubility kinetic [3]: 82.9 µM (≈ 42 µg/mL) | Human microglial cytotoxicity at 10 μM (<70% control) [4]: Y (The compound was found to be cytotoxic (cell count threshold: <70% control) when human immortalized microglial cells were dosed at 10 μM (Y: yes)) | Mouse microglial cytotoxicity at 10 μM (<70% control) ([2]; BV2, 10 μM): Y (The compound was found to be cytotoxic (cell count threshold: <70% control) when murine immortalized microglial cells were dosed at 10 μM (Y: yes)) | Inhibition of human microglial phagocytosis at 10 μM (<70% control) ([5]; HMC3, 10 μM): Y (The compound was found to inhibit phagocytosis (response threshold: <70% control) when human immortalized microglial cells were dosed at 10 μM (Y: yes)) | Inhibition of mouse microglial phagocytosis at 10 μM (<70% control) ([6]; BV2, 10 μM): Y (The compound was found to inhibit phagocytosis (response threshold: <70% control) when murine immortalized microglial cells were dosed at 10 μM (Y: yes))

CCc1cnn2c(NCc3ccc[n+]([O-])c3)cc(N3CCCC[C@H]3CCO)nc12 [Dinaciclib]
Reported on-target biochemical potency ([1]; gene target CDK9, ref PubMed 20663931, 25289887, 21768779): 4 nM | Human microglial cytotoxicity at 10 μM (<70% control) [4]: Y (The compound was found to be cytotoxic (cell count threshold: <70% control) when human immortalized microglial cells were dosed at 10 μM (Y: yes)) | Mouse microglial cytotoxicity at 10 μM (<70% control) ([2]; BV2, 10 μM): Y (The compound was found to be cytotoxic (cell count threshold: <70% control) when murine immortalized microglial cells were dosed at 10 μM (Y: yes)) | Stimulation of human microglial phagocytosis at 10 μM (>150% control) ([5]; HMC3, 10 μM): Y (The compound was found to stimulate phagocytosis (response threshold: >150% control) when human immortalized microglial cells were dosed at 10 μM (Y: yes)) | Inhibition of mouse microglial phagocytosis at 10 μM (<70% control) ([6]; BV2, 10 μM): Y (The compound was found to inhibit phagocytosis (response threshold: <70% control) when murine immortalized microglial cells were dosed at 10 μM (Y: yes)) | solubility kinetic (physchem): 143 µM (≈ 56.8 µg/mL)

CNC(=O)[C@H](Cc1c[nH]c2ccccc12)NC(=O)[C@@H](CC(=O)NO)CC(C)C [Ilomastat]
Reported on-target biochemical potency ([1]; target gene MMP17, ref Probe Miner, PubMed 33513143): 3.4 nM | solubility kinetic (physchem): 104 µM (≈ 40.2 µg/mL)

Cl.NCCOCCOCCNC(=O)Cc1ccc(Nc2nc(NCc3ccc(F)cc3)nc(NCC3CCCCC3)n2)cc1 [ENOblock (AP-III-a4)]
Reported on-target biochemical potency ([1]; gene target ENO1, ref Probe Miner, PubMed 30679508, 28272459): 576 nM | Mouse microglial cytotoxicity at 10 μM (<70% control) ([2]; BV2, 10 μM): Y (The compound was found to be cytotoxic (cell count threshold: <70% control) when murine immortalized microglial cells were dosed at 10 μM (Y: yes)) | Inhibition of human microglial phagocytosis at 10 μM (<70% control) ([5]; HMC3, 10 μM): Y (The compound was found to inhibit phagocytosis (response threshold: <70% control) when human immortalized microglial cells were dosed at 10 μM (Y: yes)) | Stimulation of mouse microglial phagocytosis at 10 μM (>150% control) ([6]; BV2, 10 μM): Y (The compound was found to stimulate phagocytosis (response threshold: >150% control) when murine immortalized microglial cells were dosed at 10 μM (Y: yes)) | solubility kinetic (physchem): 76.8 µM

CN1CCN(CCCN2c3ccccc3Sc3ccc(C(F)(F)F)cc32)CC1 [Trifluoperazine]
Reported on-target biochemical potency [1]: 5200 nM | Mouse microglial cytotoxicity at 10 μM (<70% control) ([2]; 10 μM, BV2): Y (The compound was found to be cytotoxic (cell count threshold: <70% control) when murine immortalized microglial cells were dosed at 10 μM (Y: yes)) | Inhibition of human microglial phagocytosis at 10 μM (<70% control) ([5]; 10 μM, HMC3): Y (The compound was found to inhibit phagocytosis (response threshold: <70% control) when human immortalized microglial cells were dosed at 10 μM (Y: yes)) | Reported as cell active (<10 μM) (cellular system): Y (key: Published data supports that the compound is active in a cellular system when dosed at 10 μM (Y/N); Published data supports that the compound is active in a cellular system when dosed at 10 μM (Y/N))

CCN(C)C(=O)Oc1cccc([C@H](C)N(C)C)c1 [Rivastigmine]
Reported on-target biochemical potency (nM): BChE ([1]; gene target BCHE, ref PubMed 23469045, 12166941): 37 nM | Stimulation of mouse microglial phagocytosis at 10 μM (>150% control) ([6]; BV2, 10 μM): Y (The compound was found to stimulate phagocytosis (response threshold: >150% control) when murine immortalized microglial cells were dosed at 10 μM (Y: yes)) | solubility kinetic (physchem): 160 µM (≈ 40 µg/mL)
